# Measured values reported in patent publication US10668043B2, “Potentiated antimicrobial agents” (priority 2014, dated 2020).
# What was measured:
# E. coli [1] = experiment: Double dilution test; type: cell-based
# Description: (§1) The double dilution test is a MIC measurement test made on successive dilutions of the 2 products of the composition. […] The summary table expresses for each strain and for each dilution of the booster the measured antibiotic MIC.
# (§2) The code enabling the results to be interpreted is the following one: no sign “^+” if the MIC is equivalent with and without booster, a sign “^+” if the value is lower with booster.
# Staphylococcus [2] = experiment: Double dilution test; type: cell-based; settings: strain 8148
# Description: as §1, §2
# E. coli [3] = experiment: etest on agar containing the booster; type: cell-based; design: MIC (e-test): unit not given beside the values
# Description: (§3) The corresponding tests are made based on the usual MIC test: the etest® (Biomerieux) strip is deposited onto the surface of a seeded agar medium in which the booster has been incorporated. This test enables solvent effect risks, that is a possible interaction with the solvent used in vitro, to be minimised.
# (§4) The control corresponds to the test made without cineol. A control is made in each solvent tested: distilled water, Tween/water and DMSO. • ED control=antibiotic alone in distilled water • DMSO control=antibiotic alone in DMSO • TE control=antibiotic alone in Tween® 80
# Staphylococcus [4] = experiment: etest on agar containing the booster; type: cell-based; design: MIC (e-test): unit not given beside the values
# Description: as §3, §4
# Pasteurella = experiment: etest on agar containing the booster; type: cell-based
# Description: The corresponding tests are made based on the usual MIC test: the etest® (Biomerieux) strip is deposited onto the surface of a seeded agar medium in which the booster has been incorporated.
# as §4
# Other e-tests are also made on Pasteurella.
# MSSA 8238 = settings: Balb/c, mouse, in vivo
# Description: To Balb/c mice, is injected (Sc.) the antimicrobial product or the antimicrobial+booster mixture.
# At different post-injection times, the mice are euthanised, and blood sampled, heparined and centrifuged to extract plasma thereof
# Antibacterial effects are measured after 24 h incubation. The successive dilutions enable the antimicrobial effect to be determined and compared with the MIC. The efficient concentration/MIC ratio is thus determined.
smiles,measurement,setting,value
"CC1(C)S[C@@H]2[C@H](NC(=O)[C@H](N)c3ccc(O)cc3)C(=O)N2[C@H]1C(=O)O [Amox, amoxicillin]",amoxicillin MIC,"E. coli [1]; strain 8137, Amox, cineol 0",8 mg/L
same,amoxicillin MIC,"E. coli [1]; strain 8137, cineol 10 mg/L",0.5^+
same,amoxicillin MIC,"E. coli [1]; strain 8137, cineol 20 mg/L",8 mg/L
same,amoxicillin MIC,"E. coli [1]; strain 8137, cineol 37.5 mg/L",8 mg/L
same,amoxicillin MIC,"E. coli [1]; strain 8137, cineol 75 mg/L",8 mg/L
same,amoxicillin MIC,"E. coli [1]; strain 8137, cineol 150 mg/L",8 mg/L
same,amoxicillin MIC,"E. coli [1]; strain 8137, cineol 300 mg/L",8 mg/L
same,amoxicillin MIC,"E. coli [1]; strain 8137, cineol 600 mg/L",8 mg/L
same,amoxicillin MIC,"E. coli [1]; strain 8137, cineol 2,500 mg/L",8 mg/L
same,amoxicillin MIC,"E. coli [1]; strain 8137, cineol 5,000 mg/L",8 mg/L
same,amoxicillin MIC,"E. coli [1]; strain 8137, cineol 25,000 mg/L",4^+
same,amoxicillin MIC,"E. coli [1]; strain 8137, cineol 50,000 mg/L",0.25^+
same,amoxicillin MIC,"E. coli [1]; strain 8137, cineol […]",8 mg/L
same,amoxicillin MIC,"E. coli [1]; strain 8151, Amox, cineol 0",8 mg/L
same,amoxicillin MIC,"E. coli [1]; strain 8151, cineol 10 mg/L",0.5^+
same,amoxicillin MIC,"E. coli [1]; strain 8151, cineol 20 mg/L",8 mg/L
same,amoxicillin MIC,"E. coli [1]; strain 8151, cineol 37.5 mg/L",8 mg/L
same,amoxicillin MIC,"E. coli [1]; strain 8151, cineol 75 mg/L",8 mg/L
same,amoxicillin MIC,"E. coli [1]; strain 8151, cineol 150 mg/L",8 mg/L
same,amoxicillin MIC,"E. coli [1]; strain 8151, cineol 300 mg/L",8 mg/L
same,amoxicillin MIC,"E. coli [1]; strain 8151, cineol 600 mg/L",8 mg/L
same,amoxicillin MIC,"E. coli [1]; strain 8151, cineol 2,500 mg/L",8 mg/L
same,amoxicillin MIC,"E. coli [1]; strain 8151, cineol 5,000 mg/L",8 mg/L
same,amoxicillin MIC,"E. coli [1]; strain 8151, cineol 10,000 mg/L",4^+
same,amoxicillin MIC,"E. coli [1]; strain 8151, cineol 25,000 mg/L",4^+
same,amoxicillin MIC,"E. coli [1]; strain 8151, cineol 50,000 mg/L",0.25^+
same,amoxicillin MIC,"E. coli [1]; strain 8151, cineol […]",8 mg/L
same,amoxicillin MIC,"E. coli [1]; strain 8155, Amox, cineol 0",8 mg/L
same,amoxicillin MIC,"E. coli [1]; strain 8155, cineol 10 mg/L",0.5^+
same,amoxicillin MIC,"E. coli [1]; strain 8155, cineol 20 mg/L",8 mg/L
same,amoxicillin MIC,"E. coli [1]; strain 8155, cineol 37.5 mg/L",8 mg/L
same,amoxicillin MIC,"E. coli [1]; strain 8155, cineol 75 mg/L",8 mg/L
same,amoxicillin MIC,"E. coli [1]; strain 8155, cineol 150 mg/L",8 mg/L
same,amoxicillin MIC,"E. coli [1]; strain 8155, cineol 300 mg/L",8 mg/L
same,amoxicillin MIC,"E. coli [1]; strain 8155, cineol 600 mg/L",8 mg/L
same,amoxicillin MIC,"E. coli [1]; strain 8155, cineol 2,500 mg/L",8 mg/L
same,amoxicillin MIC,"E. coli [1]; strain 8155, cineol 5,000 mg/L",8 mg/L
same,amoxicillin MIC,"E. coli [1]; strain 8155, cineol 10,000 mg/L",8 mg/L
same,amoxicillin MIC,"E. coli [1]; strain 8155, cineol 25,000 mg/L",4^
same,amoxicillin MIC,"E. coli [1]; strain 8155, cineol 50,000 mg/L",0.25^+
same,amoxicillin MIC,"E. coli [1]; strain 8155, cineol […]",8 mg/L
same,amoxicillin MIC,"E. coli [1]; strain 8156, Amox, cineol 0",8 mg/L
same,amoxicillin MIC,"E. coli [1]; strain 8156, cineol 10 mg/L",0.5^+
same,amoxicillin MIC,"E. coli [1]; strain 8156, cineol 20 mg/L",8 mg/L
same,amoxicillin MIC,"E. coli [1]; strain 8156, cineol 37.5 mg/L",8 mg/L
same,amoxicillin MIC,"E. coli [1]; strain 8156, cineol 75 mg/L",8 mg/L
same,amoxicillin MIC,"E. coli [1]; strain 8156, cineol 150 mg/L",8 mg/L
same,amoxicillin MIC,"E. coli [1]; strain 8156, cineol 300 mg/L",8 mg/L
same,amoxicillin MIC,"E. coli [1]; strain 8156, cineol 600 mg/L",8 mg/L
same,amoxicillin MIC,"E. coli [1]; strain 8156, cineol 2,500 mg/L",16 mg/L
same,amoxicillin MIC,"E. coli [1]; strain 8156, cineol 5,000 mg/L",8 mg/L
same,amoxicillin MIC,"E. coli [1]; strain 8156, cineol 10,000 mg/L",8 mg/L
same,amoxicillin MIC,"E. coli [1]; strain 8156, cineol 25,000 mg/L",8^
same,amoxicillin MIC,"E. coli [1]; strain 8156, cineol 50,000 mg/L",4^+
same,amoxicillin MIC,"E. coli [1]; strain 8156, cineol […]",8 mg/L
same,amoxicillin MIC,"E. coli [1]; strain ATCC 25922, Amox, cineol 0",8 mg/L
same,amoxicillin MIC,"E. coli [1]; strain ATCC 25922, cineol 10 mg/L",0.5^+
same,amoxicillin MIC,"E. coli [1]; strain ATCC 25922, cineol 20 mg/L",8 mg/L
same,amoxicillin MIC,"E. coli [1]; strain ATCC 25922, cineol 37.5 mg/L",8 mg/L
same,amoxicillin MIC,"E. coli [1]; strain ATCC 25922, cineol 75 mg/L",8 mg/L
same,amoxicillin MIC,"E. coli [1]; strain ATCC 25922, cineol 150 mg/L",8 mg/L
same,amoxicillin MIC,"E. coli [1]; strain ATCC 25922, cineol 300 mg/L",8 mg/L
same,amoxicillin MIC,"E. coli [1]; strain ATCC 25922, cineol 600 mg/L",8 mg/L
same,amoxicillin MIC,"E. coli [1]; strain ATCC 25922, cineol 2,500 mg/L",16 mg/L
same,amoxicillin MIC,"E. coli [1]; strain ATCC 25922, cineol 5,000 mg/L",8 mg/L
same,amoxicillin MIC,"E. coli [1]; strain ATCC 25922, cineol 25,000 mg/L",4^+
same,amoxicillin MIC,"E. coli [1]; strain ATCC 25922, cineol 50,000 mg/L",0.06^+
same,amoxicillin MIC,"E. coli [1]; strain ATCC 25922, cineol […]",8 mg/L
same,amoxicillin MIC,"Staphylococcus [2]; Amox, cineol 0",8 mg/L
same,amoxicillin MIC,Staphylococcus [2]; cineol 10 mg/L,0.5^+
same,amoxicillin MIC,Staphylococcus [2]; cineol 20 mg/L,8 mg/L
same,amoxicillin MIC,Staphylococcus [2]; cineol 37.5 mg/L,8 mg/L
same,amoxicillin MIC,Staphylococcus [2]; cineol 75 mg/L,8 mg/L
same,amoxicillin MIC,Staphylococcus [2]; cineol 150 mg/L,8 mg/L
same,amoxicillin MIC,Staphylococcus [2]; cineol 300 mg/L,8 mg/L
same,amoxicillin MIC,Staphylococcus [2]; cineol 600 mg/L,8 mg/L
same,amoxicillin MIC,"Staphylococcus [2]; cineol 2,500 mg/L",8 mg/L
same,amoxicillin MIC,"Staphylococcus [2]; cineol 5,000 mg/L",8 mg/L
same,amoxicillin MIC,"Staphylococcus [2]; cineol 10,000 mg/L",4 mg/L
same,amoxicillin MIC,"Staphylococcus [2]; cineol 25,000 mg/L",16^
same,amoxicillin MIC,"Staphylococcus [2]; cineol 50,000 mg/L",0.25^+
same,amoxicillin MIC,Staphylococcus [2]; cineol […],8 mg/L
same,MIC (e-test),"E. coli [3]; strain 8141, Cineol 4 mg/L, DMSO",6^+
same,MIC (e-test),"E. coli [3]; strain 8141, Cineol 16 mg/L, DMSO",0.1^+
same,MIC (e-test),"E. coli [3]; strain 8141, ED control, no cineol",8^+
same,MIC (e-test),"E. coli [3]; strain 8150, Cineol 4 mg/L, DMSO",6^+
same,MIC (e-test),"E. coli [3]; strain 8150, Cineol 16 mg/L, DMSO",0.1^+
same,MIC (e-test),"E. coli [3]; strain 8150, ED control, no cineol",8^+
same,MIC (e-test),"E. coli [3]; strain 8156, Cineol 4 mg/L, DMSO",8^+
same,MIC (e-test),"E. coli [3]; strain 8156, Cineol 16 mg/L, DMSO",8^+
same,MIC (e-test),"E. coli [3]; strain 8156, ED control, no cineol",12^+
same,MIC (e-test),"E. coli [3]; strain ATCC25922, Cineol 4 mg/L, DMSO",12^+
same,MIC (e-test),"E. coli [3]; strain ATCC25922, Cineol 16 mg/L, DMSO",12^+
same,MIC (e-test),"E. coli [3]; strain ATCC25922, ED control, no cineol",16^+
same,MIC (e-test),"Staphylococcus [4]; strain 8143, Cineol 4 mg/L, DMSO",1.5^+
same,MIC (e-test),"Staphylococcus [4]; strain 8143, Cineol 16 mg/L, DMSO",1.5^+
same,MIC (e-test),"Staphylococcus [4]; strain 8143, ED control, no cineol",2^+
same,MIC (e-test),"Staphylococcus [4]; strain 8146, Cineol 4 mg/L, DMSO",0.38^+
same,MIC (e-test),"Staphylococcus [4]; strain 8146, Cineol 16 mg/L, DMSO",0.19^+
same,MIC (e-test),"Staphylococcus [4]; strain 8146, ED control, no cineol",0.5^+
same,MIC (e-test),"Staphylococcus [4]; strain 8149, Cineol 4 mg/L, DMSO",0.5^+
same,MIC (e-test),"Staphylococcus [4]; strain 8149, Cineol 16 mg/L, DMSO",0.38^+
same,MIC (e-test),"Staphylococcus [4]; strain 8149, ED control, no cineol",1^+
same,MIC (e-test),"Staphylococcus [4]; strain 8240, Cineol 4 mg/L, DMSO",12^+
same,MIC (e-test),"Staphylococcus [4]; strain 8240, Cineol 16 mg/L, DMSO",16^+
same,MIC (e-test),"Staphylococcus [4]; strain 8240, ED control, no cineol",24^+
same,MIC (e-test),"Staphylococcus [4]; strain 8241, Cineol 4 mg/L, DMSO",8^+
same,MIC (e-test),"Staphylococcus [4]; strain 8241, Cineol 16 mg/L, DMSO",12^+
same,MIC (e-test),"Staphylococcus [4]; strain 8241, ED control, no cineol",32^+
same,MIC (e-test),"Staphylococcus [4]; strain 10168, Cineol 4 mg/L, DMSO",1^+
same,MIC (e-test),"Staphylococcus [4]; strain 10168, Cineol 16 mg/L, DMSO",1^+
same,MIC (e-test),"Staphylococcus [4]; strain 10168, ED control, no cineol",2^+
same,MIC (e-test),"Pasteurella; strain 14012, 5 mg cineol DMSO",0.094 mg/L
same,MIC (e-test),"Pasteurella; strain 14012, 5 mg cineol TE",0.094 mg/L
same,MIC (e-test),"Pasteurella; strain 14012, 5 mg cineol water",0.094 mg/L
same,MIC (e-test),"Pasteurella; strain 14012, 10 mg cineol TE",0.094 mg/L
same,MIC (e-test),"Pasteurella; strain 14012, 10 mg cineol water",0.094 mg/L
same,MIC (e-test),"Pasteurella; strain 14012, DMSO control",0.094 mg/L
same,MIC (e-test),"Pasteurella; strain 14012, ED control",0.032 mg/L
same,MIC (e-test),"Pasteurella; strain 14012, TE control",0.19 mg/L
same,MIC (e-test),"Pasteurella; strain 14013, 5 mg cineol DMSO",0.25 mg/L
same,MIC (e-test),"Pasteurella; strain 14013, 5 mg cineol TE",0.25 mg/L
same,MIC (e-test),"Pasteurella; strain 14013, 5 mg cineol water",0.25 mg/L
same,MIC (e-test),"Pasteurella; strain 14013, 10 mg cineol DMSO",0.25 mg/L
same,MIC (e-test),"Pasteurella; strain 14013, 10 mg cineol water",0.19 mg/L
same,MIC (e-test),"Pasteurella; strain 14013, DMSO control",0.19 mg/L
same,MIC (e-test),"Pasteurella; strain 14013, ED control",0.19 mg/L
same,MIC (e-test),"Pasteurella; strain 14013, TE control",0.25 mg/L
same,MIC (e-test),"Pasteurella; strain 14014, 5 mg cineol DMSO",0.094 mg/L
same,MIC (e-test),"Pasteurella; strain 14014, 5 mg cineol TE",0.094 mg/L
same,MIC (e-test),"Pasteurella; strain 14014, 5 mg cineol water",0.19 mg/L
same,MIC (e-test),"Pasteurella; strain 14014, 10 mg cineol TE",0.094 mg/L
same,MIC (e-test),"Pasteurella; strain 14014, ED Control",0.094 mg/L
same,MIC (e-test),"Pasteurella; strain 14014, TE control",0.094 mg/L
same,Time spent beyond the MIC,MSSA 8238,<5 h
